In US20060159746A1, “Compositions comprising fatty acids and amino acids” (priority 2003, published 2006):
Marks after values point to notes of the source that are not given here.

Columns and labels:
Type in all cases: in vivo
[1] = system: Lepr db mouse; assay: OGT (1 g glucose/kg) combined with oral administration of the active ingredient; postprandial glucose and insulin; set-up: Serum insulin levels: unit not given here; details: for Serum glucose levels: in mg/dL (unit assumed)
Description: Acute effects of a nutritional formula, Starlix® and 4-HI on glycemic control in the type 2 diabetes animal model (Lepr db mouse) were studied. Animals underwent an OGT (1 g glucose/kg) combined with oral administration of the active ingredient. The following groups were tested: (A) placebo (2% Tween 80, 20 ml/kg), (B) 4-HI (100 mg/kg), (C) guar gum (150 mg/kg), (D) Starlix® (65 mg/kg), (E) Starlix®+4-HI, and (F) Starlix®+guar gum. Postprandial glucose and insulin were studied at 0, 30, 60 and 90 min.

[2] = system: Lepr db/db mice; assay: Fasting plasma lipids (TG, TC) in Lepr db/db mice fed different fatty acids; details: after diet feeding
Description: (§1) C57BLKS/J-Lepr^db/db male mice (4 wks of age) were obtained from Jackson Laboratory, Bar Harbor, Me. Mice were initially maintained on commercial chow for 2 wks, followed by a purified stabilization diet providing 40% en as fat and 2% en as linoleic acid (LA, 18:2n-6) for another 2 wks. At 8 wks of age, a baseline oral glucose tolerance test was conducted. Based on their OGTT profile, mice were evenly distributed among 6 groups (n=6 per each group) and were fed one of 6 experimental diets designed to establish the relative importance of specific fatty acid supplementation on ameliorating insulin resistance.
(§2) Table 1 gives the predicted fatty acid profile (% en) for the 6 experimental diets. The control diet, based on butter and palm oil blend, provided 40% en as fat with 2% en as LA. […] These Lepr db/db mice were fed one of the above 6 diets for 6 weeks.
(§3) Body weights of animals were recorded each week. Insulin tolerance testing was performed after 6 weeks of dietary intervention. Mice (non-fasted) were injected intraperitoneally with 1.5 U/kg human insulin and blood glucose concentrations were determined at 0, 15, 30 and 60 min after insulin injection by tail bleeding, using a glucometer. A week later, fasting blood samples were collected by cardiac puncture, under Co2/O2 anesthesia, for analysis of plasma insulin, triglyceride (TG) and total cholesterol (TC). […] Plasma insulin was determined using the RIA kit (Linco research Inc, MO).

[3] = Body weight and weight gain of Lepr db/db mice fed different fatty acid diets for 6 wks; details: for Body wt at 6 wks: 6 wks after dietary intervention; for Wt gain at 6 wks: 6 wks of diet
Description: as §1, §2, §3

[4] = system: Lepr db/db mice; assay: Insulin tolerance testing (blood glucose after i.p. human insulin) after 6 weeks of dietary intervention; details: 1.5 U/kg human insulin i.p.
Description: as §1, §2, §3

Structure (SMILES)	Serum insulin levels ([1]; 0 min of OGT)	Serum glucose levels ([1]; 0 min of OGT)	Serum insulin levels ([1]; 30 min of OGT)	Serum glucose levels ([1]; 30 min of OGT)	Serum insulin levels ([1]; 60 min of OGT)	Serum glucose levels ([1]; 60 min of OGT)	Serum insulin levels ([1]; 90 min of OGT)	Serum glucose levels ([1]; 90 min of OGT)	Fasting plasma TC [2]	Fasting plasma TG [2]	Body wt at 6 wks [3]	Wt gain at 6 wks [3]	Mean blood glucose values (percentage of intial) after insulin administration ([4]; 0 min, non-fasted)	Mean blood glucose values (percentage of intial) after insulin administration ([4]; 15 min)	Mean blood glucose values (percentage of intial) after insulin administration ([4]; 30 min)	Mean blood glucose values (percentage of intial) after insulin administration ([4]; 60 min)	Hypoglycemic effect, in words ([1]; serum glucose in OGT)
C[C@@H]([C@H](C)O)[C@H](N)C(=O)O [4HI, 4-hydroxyisoleucine]	8.17	227.7	11.27	473.7	6.41	494.7	4.63	584									
CC/C=C\C/C=C\C/C=C\C/C=C\C/C=C\C/C=C\CCC(=O)O [DHA, docosahexaenoic acid]									288 ± 39 ^ mg/dl	101 ± 14^a,c mg/dl	48.9 ± 3.8 g	6.1 ± 5.2 g	100 percentage of intial	131 percentage of intial	120 percentage of intial	99 percentage of intial	
CCCCC/C=C\C/C=C\CCCCCCCC(=O)O [LA, linoleic acid]									313 ± 28 ^ mg/dl	120 ± 24^a,b mg/dl	43.9 ± 5.4 g	2.5 ± 4.3 g	100 percentage of intial	135 percentage of intial	115 percentage of intial	85 percentage of intial	
CC/C=C\C/C=C\C/C=C\CCCCCCCC(=O)O [LNA, linolenic acid]									326 ± 13^ mg/dl	142 ± 27^b mg/dl	50.5 ± 2.4 g	8.3 ± 4 g	100 percentage of intial	138 percentage of intial	127 percentage of intial	100 percentage of intial	
CC(C)[C@H]1CC[C@H](C(=O)N[C@H](Cc2ccccc2)C(=O)O)CC1 [Starlix, nateglinide]	9.8	210	11.18	456.7	5.38	497.3	3.75	599									significant hypoglycemic effect at T90
